Measured values taken from PMC8869358, “High-Throughput Chemical Screening and Structure-Based Models to Predict hERG Inhibition” (Biology, 2022).
Structures can show the parent of a compound that is named as a salt.

Target: hERG (Homo sapiens, UniProt Q12809)
Assay: cell-based
Settings: (-LOG10(IC50), µM)

Sequence of hERG (Q12809 whole entry): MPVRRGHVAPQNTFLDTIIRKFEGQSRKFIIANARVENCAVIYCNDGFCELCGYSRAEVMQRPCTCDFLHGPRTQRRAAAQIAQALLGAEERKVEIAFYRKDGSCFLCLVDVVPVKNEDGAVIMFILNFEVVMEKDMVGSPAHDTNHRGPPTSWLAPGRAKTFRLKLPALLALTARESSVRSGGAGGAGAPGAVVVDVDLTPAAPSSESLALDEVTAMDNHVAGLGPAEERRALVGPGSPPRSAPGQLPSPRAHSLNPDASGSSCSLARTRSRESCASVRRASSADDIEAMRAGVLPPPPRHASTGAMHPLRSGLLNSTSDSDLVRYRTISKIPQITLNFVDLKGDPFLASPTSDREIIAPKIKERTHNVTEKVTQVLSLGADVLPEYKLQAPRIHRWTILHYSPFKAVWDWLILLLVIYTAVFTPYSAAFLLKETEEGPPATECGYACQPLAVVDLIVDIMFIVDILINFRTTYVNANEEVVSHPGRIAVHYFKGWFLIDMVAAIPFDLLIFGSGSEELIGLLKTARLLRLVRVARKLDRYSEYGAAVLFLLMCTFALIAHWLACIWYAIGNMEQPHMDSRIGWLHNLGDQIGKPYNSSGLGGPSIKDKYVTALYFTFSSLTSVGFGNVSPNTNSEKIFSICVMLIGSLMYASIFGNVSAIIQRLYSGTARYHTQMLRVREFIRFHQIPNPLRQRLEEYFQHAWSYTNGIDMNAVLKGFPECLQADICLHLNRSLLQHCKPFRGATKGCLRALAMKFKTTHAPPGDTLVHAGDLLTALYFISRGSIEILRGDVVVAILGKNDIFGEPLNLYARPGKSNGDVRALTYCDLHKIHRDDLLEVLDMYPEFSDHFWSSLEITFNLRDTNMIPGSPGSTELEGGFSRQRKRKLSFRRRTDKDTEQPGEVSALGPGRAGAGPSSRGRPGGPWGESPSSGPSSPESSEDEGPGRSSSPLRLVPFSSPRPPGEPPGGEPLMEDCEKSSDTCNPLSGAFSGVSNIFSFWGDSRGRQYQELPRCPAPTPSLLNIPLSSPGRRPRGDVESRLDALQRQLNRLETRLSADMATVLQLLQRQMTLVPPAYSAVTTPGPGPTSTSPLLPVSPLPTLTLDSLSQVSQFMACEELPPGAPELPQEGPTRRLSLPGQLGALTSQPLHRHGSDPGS

Compound | IC50 [µM]
CCCOC(C(=O)OC1CCN(C)CC1)(c1ccccc1)c1ccccc1 [Propiverine hydrochloride] | 14.2
O=C(CCCCCCCCc1cccnc1)N1CCC(C=C(c2ccccc2)c2ccccc2)CC1 [Ro 23-7637] | 11
O=c1[nH]c2ccc([S+]([O-])CCN3CCC(Cc4ccc(F)cc4)CC3)cc2o1 (centres unmarked) [Besonprodil] | 4.36
N#CCCC(Br)(C#N)CBr (centres unmarked) [1,2-Dibromo-2,4-dicyanobutane] | 36.7
CCOC(=O)C(Cl)Cc1cc(-n2nc(C)n(C(F)F)c2=O)c(F)cc1Cl (centres unmarked) [Carfentrazone-ethyl] | 28.6
NCc1cccc(C2CCN(C(=O)c3ccc(C#Cc4ccccc4F)o3)CC2)c1 [AVE5638] | 9.77
C[N+]1(CC2COC(c3ccccc3)(C3CCCCC3)O2)CCCCC1 (centres unmarked) [Oxapium iodide] | 14
Cc1ccc(Cl)c(OCC(O)CNC(C)(C)C)c1 (centres unmarked) [Bupranolol] | 20.1
CCCCC(CC)COC(=O)C(C#N)=C(c1ccccc1)c1ccccc1 (centres unmarked) [2-Ethylhexyl-2-cyano-3,3-diphenylacrylate] | 18.4
CCC(C)Nc1ccc(NC(C)CC)cc1 (centres unmarked) [N,N'-Bis(1-methylpropyl)-1,4-benzenediamine] | 12.5
ClC1=C(Cl)C2(Cl)C3C(Cl)C=CC3C1(Cl)C2(Cl)Cl (centres unmarked) [Heptachlor] | 31
c1ccc(Sc2ccccc2)cc1 [Diphenyl sulfide] | 43.6
CC1(C)CCC[C@]2(C)[C@H]3CC(=O)O[C@]3(C)CC[C@@H]12 [(3aR)-(+)-Sclareolide] | 42
CC1CCCCN1CCCOC(=O)c1ccc(OC2CCCCC2)cc1 (centres unmarked) [Cyclomethycaine] | 2.68
CCc1oc2ccccc2c1C(=O)c1cc(Br)c(O)c(Br)c1 [Benzbromarone] | 10.7
C[C@]12CC[C@@H]3c4ccc(O)cc4CC[C@H]3[C@@H]1CC[C@@H]2OC(=O)CCC1CCCC1 [Estradiol cypionate] | 43.6
CCCCCCCCCCCCN [Dodecylamine hydrochloride] | 13.3
Clc1cc(Cl)c2c(c1)N=C1CCCCCN1C2 [1,3-Dichloro-6,7,8,9,10,12-hexahydroazepino[2,1-b]quinazoline hydrochloride (1:1)] | 12.5
CCOC(=O)C1(c2ccccc2)CCN(CCc2ccc(N)cc2)CC1 [Anileridine] | 18.3
Cc1c(C(=O)NN2CCCCC2)nn(-c2ccc(Cl)cc2Cl)c1-c1ccc(Cl)cc1 [Rimonabant] | 3.25
Cc1ccc(CCn2c3c(c4cc(Cl)ccc42)CN(C)CC3)cn1 [Dorastine] | 15.7

Compound | IC50 [µM]
CCCCCC(=O)O[C@]1(C(C)=O)CC[C@H]2[C@@H]3CCC4=CC(=O)CC[C@]4(C)[C@H]3CC[C@@]21C [17-((1-Oxohexyl)oxy)pregn-4-ene-3,20-dione] | 22.6
N#CC(CCc1ccc(Cl)cc1)(Cn1cncn1)c1ccccc1 (centres unmarked) [Fenbuconazole] | 18.1
CN1CCN(CCC(=O)N2c3ccccc3Sc3ccc(C(F)(F)F)cc32)CC1 [Ftormetazine] | 4.96
CN[C@H]1CC[C@@H](c2ccc(Cl)c(Cl)c2)c2ccc(S(N)(=O)=O)cc21 [UK-373911] | 6.92
Cc1c(OCC(F)(F)F)ccnc1C[S+]([O-])c1nc2ccccc2[nH]1 (centres unmarked) [Lansoprazole] | 43.6
CCCCCCCCCCCCCCCCCCNC(=O)OC1CCN(C(=O)OC[C@H](COC(=O)N(Cc2cccc[n+]2CC)C(=O)c2ccccc2OC)OC)CC1 [Minopafant] | 19
CCCCOC(=O)[C@@H](C)Oc1ccc(Oc2ccc(C(F)(F)F)cn2)cc1 [Fluazifop-P-butyl] | 22
Clc1ccc(C(OCCN2CCCCC2)c2ccccc2)cc1 (centres unmarked) [Cloperastine hydrochloride] | 0.849
CCCCCCCCCCCCCC[P+](CCCCCC)(CCCCCC)CCCCCC [Trihexyltetradecylphosphonium bromide] | 0.44
CCCCCCCCCCCCCCN(CCO)CCO [2,2'-(Tetradecylimino)diethanol] | 16.1
O=CC=C(c1ccccc1)c1ccccc1 [3,3-Diphenylacrylaldehyde] | 42.4
CC(C(O)c1ccc(O)cc1)N1CCC(Cc2ccccc2)CC1 (centres unmarked) [Ifenprodil] | 7
CCCCCCCCCCCCCC[P+](CCCCCC)(CCCCCC)CCCCCC [Trihexyltetradecylphosphonium chloride] | 0.875
CC(C)(C)C1(CCc2ccc(Cl)cc2)CO1 (centres unmarked) [2-(2-(4-Chlorophenyl)ethyl)-2-(1,1-dimethylethyl)oxirane] | 23.2
CC(C)Oc1cccc(NC(=O)c2ccccc2C(F)(F)F)c1 [Flutolanil] | 50.9
CCOC(=O)O[C@H](C)OC(=O)c1ccc2c(c1)cc(C(=O)NC1CCN(C(C)C)CC1)n2Cc1cc(-c2ccc(Cl)s2)on1 [AVE6324] | 8.14
CC1CCC(C(C)C)C(OC(=O)c2ccccc2N)C1 (centres unmarked) [Menthyl anthranilate] | 30.5
C=CCOc1cc(Cl)ccc1C(=O)NCCN(CC)CC [Alloclamide] | 8.82
COC1CC(=C(c2cccs2)c2cccs2)C[N+](C)(C)C1 (centres unmarked) [Timepidium bromide] | 19.7
CCN1CCCC1CNC(=O)C(O)(c1ccccc1)c1ccccc1 (centres unmarked) [Epicainide] | 19.7
COC(=O)c1cc(Oc2ccc(Cl)cc2Cl)ccc1[N+](=O)[O-] [Bifenox] | 23.6

Compound | IC50 [µM]
O=C1C=CC(=O)c2ccccc21 [1,4-Naphthoquinone] | 21
CCCCCCCCCCn1cc[n+](C)c1 [1-Decyl-3-methylimidazolium bromide] | 15
CCC(C)c1cc(C(C)(C)C)c(O)c(C(C)(C)C)c1 (centres unmarked) [4-(Butan-2-yl)-2,6-di-tert-butylphenol] | 8.54
CC(=O)C1(C)CC2=C(CCCC2(C)C)CC1C (centres unmarked) [Isocyclemone E] | 40
O=C1OC(CCN2CCCCC2)OC1(c1ccccc1)c1ccccc1 (centres unmarked) [Pipoxolan hydrochloride] | 1.25
N#Cc1ccc(CC(=NNC(=O)Nc2ccc(OC(F)(F)F)cc2)c2cccc(C(F)(F)F)c2)cc1 [Metaflumizone] | 13.3
Cc1ccc(S(=O)(=O)C(I)I)cc1 [Diiodomethyl 4-methylphenyl sulfone] | 46.2
C[C@H]1C[C@H]2[C@@H]3CCC4=CC(=O)C=C[C@]4(C)[C@@]3(Cl)[C@@H](O)C[C@]2(C)[C@@]1(O)C(=O)CO [Beclomethasone] | 23.9
CCCCN1C(=O)[C@@H]([C@H](O)C2CCCCC2)NC(=O)C12CCN(Cc1ccc(Oc3ccc(C(=O)O)cc3)cc1)CC2 [Aplaviroc hydrochloride] | 17.4
c1ccc2c(c1)CCc1ccccc1N2 [10,11-Dihydro-5H-dibenz[b,f]azepine] | 19.7
CN(C)c1ccc(C(=C2C=CC(=[N+](C)C)C=C2)c2ccc(N(C)C)cc2)cc1 [Gentian Violet] | 2.79
COc1cc(N)c(Cl)cc1C(=O)NC1CCN(Cc2ccccc2)CC1 [Clebopride maleate] | 15.7
O=[N+]([O-])c1ccc(Oc2ccc(Cl)cc2Cl)cc1 [Nitrofen] | 18.9
NNc1nc(-c2ccc([N+](=O)[O-])cc2)cs1 [2-Hydrazino-4-(4-nitrophenyl)thiazole] | 23.6
CN1[C@@H]2CC[C@H]1C[C@@H](OC(=O)c1c[nH]c3ccccc13)C2 [Tropisetron] | 12.9
O=[N+]([O-])c1ccc(Oc2ccc(C(F)(F)F)cc2[N+](=O)[O-])cc1 [Fluorodifen] | 7.76
CC(C)(C)C(O)/C(=C\c1ccc(Cl)cc1Cl)n1cncn1 (centres unmarked) [Diniconazole] | 61.6
CCC(OC(C)=O)C(C[C@H](C)NC)(c1ccccc1)c1ccccc1 (mixture of isomers) [L-Î±lpha-Noracetylmethadol hydrochloride] | 7.53
Clc1ccc(C(Cn2ccnc2)OCc2ccc(Sc3ccccc3)cc2)c(Cl)c1 (centres unmarked) [Fenticonazole] | 12.5
CN1CCc2cc(Cl)c(O)cc2[C@H]2c3ccccc3CC[C@@H]21 [Ecopipam] | 10.3
CCOC(=O)NCCOc1ccc(Oc2ccccc2)cc1 [Fenoxycarb] | 45.3

Compound | IC50 [µM]
N=C(N/N=C/c1ccc(Cl)cc1)N/N=C/c1ccc(Cl)cc1 [Robenidine] | 1.69
Brc1ccc(Oc2ccc(Br)cc2)cc1 [4,4'-Dibromodiphenyl ether] | 18.8
Oc1ccc(C(c2ccc(O)cc2)C(Cl)(Cl)Cl)cc1 [2,2-Bis(4-hydroxyphenyl)-1,1,1-trichloroethane] | 54.9
O=C(CCCN1CCN(c2ccccn2)CC1)c1ccc(F)cc1 [Azaperone] | 4.77
CCOP(=S)(Oc1cnc(C(C)(C)C)nc1)OC(C)C (centres unmarked) [Tebupirimfos] | 43.6
Fc1ccc(Oc2ccnc3cc(Cl)cc(Cl)c23)cc1 [Quinoxyfen] | 22.7
COC(=O)C1=C(C)NC(C)=C(C(=O)OCCCN2CCC(c3ccccc3)(c3ccccc3)CC2)C1c1cccc([N+](=O)[O-])c1 (racemic) [(+/-) -Niguldipine hydrochloride (1:x)] | 1.25
NC(=O)N(O)[C@@H]1C=C[C@H](Oc2cccc(Oc3ccc(F)cc3)c2)C1 [CJ-013790] | 38.9
C/C=C/C=C/CCCCCCCO [8,10-Dodecadien-1-ol] | 22.7
CC1(C)CCC(Cc2ccc(Cl)cc2)C1(O)Cn1cncn1 (centres unmarked) [Metconazole] | 50.9
CCCCCCCCCCCCCCCC[N+](C)(C)C [Hexadecyl trimethyl ammonium chloride] | 18.1
CC[N+](CC)(CC(=O)Nc1c(C)cccc1C)Cc1ccccc1 [Denatonium saccharide] | 27.1
CC(C)=CCC[C@](C)(O)[C@@H]1CC=C(C)CC1 [Levomenol] | 38.9
Cc1c(C)n(Cc2ccccc2)c2ccc(C(=O)OCCN(C)C)cc12 [Indocate] | 14.2
CC(C)=CC1C(C(=O)OCN2C(=O)C3=C(CCCC3)C2=O)C1(C)C (centres unmarked) [Tetramethrin] | 40.4
CCCCCCCCCCCCn1cc[n+](C)c1 [1-Dodecyl-3-methylimidazolium tetrafluoroborate] | 4.04
C=CC(C)(O)CCC=C(C)CCC=C(C)C (centres unmarked) [Nerolidol] | 47.1
CCCCCCCCCCCCCCCCn1cc[n+](C)c1 [1-Hexadecyl-3-methylimidazolium chloride] | 14.1
O=C(Nc1ccccc1)N(Cc1ccc(Cl)cc1)C1CCCC1 [Pencycuron] | 33.4
CCCCCCCCCCCCOCCOCCOCCOCCOCCOCCOCCOCCOCCO [Polyoxyethylene (9) lauryl ether] | 21.3
